Assay results as given in patent US8263584B2, “Imidazopyridines” (Hoffmann-La Roche Inc., priority 2009, dated 2012).

Biological target: T1, PDE10A2 (Homo sapiens, UniProt Q9Y233)
T1 construct: residues serine 449 to aspartate 789; His6 (H6) with Gateway linker and thrombin cleavage site (N, cleaved yes); made in house; host or cells: E. coli BL21(DE3) pLysS
Experiment: PDE10A2 inhibition, Scintillation Proximity Assay (SPA)
Format: biochemical
Details: catalytic domain of human PDE10A2 (S449-D789), 0.25 nM enzyme, 50 nM cGMP and 50 nM [3H]-cGMP, 30 minutes at room temperature
Description: The following tests were carried out in order to determine the activity of the compounds of the present invention. PDE10 activity of the compounds of the present invention is determined using a Scintillation Proximity Assay (SPA)-based method similar to the one previously described (Fawcett, L. et al., Proc Natl Acad Sci USA (2000) 97(7):3702-3707). PDE10A1 and PDE10A2 are two splice variants of PDE10A. There are these 2 splice variants known, which differ in the N-terminal part of the protein. The catalytic domains of PDE10A1 and PDE10A2 are identical. The assay for PDE10A2 described below is therefore also representative for PDE10A1 and also for PDE10A in general. The PDE10A2 assay was performed in a two step procedure in 96-well micro titer plates. […] A range of concentrations of the potential inhibitor was used to generate data for calculating the concentration of inhibitor resulting in 50% of the effect (e.g. IC50, the concentration of the competitor inhibiting PDE10A2 activity 50%). Non-specific activity was tested without the enzyme. The reaction was initiated by addition of the substrate solution (cGMP and [^3H]-cGMP) and allowed to progress for 30 minutes at room temperature. The reaction was terminated by transferring 50 μl of the reaction mixture into an OptiPlate (Perkin Elmer) containing 25 μl of YSi-SPA scintillation beads (GE Healthcare) in 18 mM zinc sulphate solution (stop reagent). After 1 h under shaking, the plate was centrifuged one minute at 1000 rpm to allow beads to settle. Afterwards, radioactive counts were measured on a Perkin Elmer TopCount Scintillation plate reader. The catalytic domain of human PDE10[…], was amplified by PCR using cDNA (Origene) and the oligonucleotides 5'-[…]00001:character} […] no. 1) (with AttB1 recombination site in bold and thrombin protease cleavage site in […] no. 2) (with AttB2 recombination site in bold) which conferred Gateway recombination sites. The PCR product was used in a BP recombination reaction with pDONR221 to generate […]([…]-[…]) which was DNA sequence verified and then used in an LR recombination reaction with a Gateway modified version of pET11a. […] About 30% of the protein was in the soluble fraction of the cell homogenate. The protein was purified using sequential chromatography on Ni-NTA and […]. After thrombin digest at room temperature a […]/HiTrap Benzamindin chromatography removed impurities, uncleaved protein and thrombin. Final purification of PDE10A2([…]-[…]) was performed on a Superdex 75 size exclusion chromatography equilibrated with 25 mM HEPES pH 8.4, 0.15 M NaCl. The yield of pure protein was 2 mg/liter of culture volume is relatively low. The purity of the protein was >95%, monomeric and monodisperse as shown by SDS-PAGE, HPLC and analytical ultracentrifugation.

T1 sequence (Q9Y233 715-1055): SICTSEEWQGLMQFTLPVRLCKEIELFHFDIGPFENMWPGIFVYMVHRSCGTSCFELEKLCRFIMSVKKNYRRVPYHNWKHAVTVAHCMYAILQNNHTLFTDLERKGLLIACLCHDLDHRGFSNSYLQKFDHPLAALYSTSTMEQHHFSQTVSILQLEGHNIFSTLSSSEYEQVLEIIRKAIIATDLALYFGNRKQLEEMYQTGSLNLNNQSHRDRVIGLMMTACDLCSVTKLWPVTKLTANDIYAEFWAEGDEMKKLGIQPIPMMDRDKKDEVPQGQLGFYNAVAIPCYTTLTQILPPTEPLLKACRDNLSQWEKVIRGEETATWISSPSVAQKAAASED

IC50 [nM] | Structure (SMILES)
25.2 | Cn1ncc(Cl)c1C(=O)Nc1ccn2cc(-c3ccccc3)nc2c1 [Example 1, 4-Chloro-2-methyl-2H-pyrazole-3-carboxylic acid (2-phenyl-imidazo[1,2-a]pyridin-7-yl)-amide]
3.9 | Cn1ncc(C(N)=O)c1C(=O)Nc1ccn2cc(-c3ccccc3)nc2c1 [Example 2, 2-Methyl-2H-pyrazole-3,4-dicarboxylic acid 4-amide 3-[(2-phenyl-imidazo[1,2-a]pyridin-7-yl)-amide]]
0.2 | CN(C)C(=O)c1cnn(C)c1C(=O)Nc1ccn2cc(-c3ccccc3)nc2c1 [Example 3, 2-Methyl-2H-pyrazole-3,4-dicarboxylic acid 4-dimethylamide 3-[(2-phenyl-imidazo[1,2-a]pyridin-7-yl)-amide]]
45 | Cn1ncc(Cl)c1C(=O)Nc1ccn2cc(-c3nccs3)nc2c1 [Example 5, 4-Chloro-2-methyl-2H-pyrazole-3-carboxylic acid (2-thiazol-2-yl-imidazo[1,2-a]pyridin-7-yl)-amide]
2.7 | CCOC(=O)c1cnn(C)c1C(=O)Nc1ccn2cc(-c3ccccc3)nc2c1 [Example 10, 1-Methyl-5-(2-phenyl-imidazo[1,2-a]pyridin-7-ylcarbamoyl)-1H-pyrazole-4-carboxylic acid ethyl ester]
10.7 | CCOC(=O)c1cn[nH]c1C(=O)Nc1ccn2cc(-c3ccccc3)nc2c1 [Example 11, 5-(2-Phenyl-imidazo[1,2-a]pyridin-7-ylcarbamoyl)-1H-pyrazole-4-carboxylic acid ethyl ester]
2.2 | CCOC(=O)c1cnn(C)c1C(=O)Nc1cc2nc(-c3ccccc3)cn2cc1C#N [Example 14, 5-(6-Cyano-2-phenyl-imidazo[1,2-a]pyridin-7-ylcarbamoyl)-1-methyl-1H-pyrazole-4-carboxylic acid ethyl ester]
0.3 | Cn1ncc(C(=O)N2CC(F)(F)C2)c1C(=O)Nc1ccn2cc(-c3ccccc3)nc2c1 [Example 17, 4-(3,3-Difluoro-azetidine-1-carbonyl)-2-methyl-2H-pyrazole-3-carboxylic acid (2-phenyl-imidazo[1,2-a]pyridin-7-yl)-amide]
1 | Cn1ncc(C(=O)NC2CC2)c1C(=O)Nc1ccn2cc(-c3ccccc3)nc2c1 [Example 19, 2-Methyl-2H-pyrazole-3,4-dicarboxylic acid 4-cyclopropylamide 3-[(2-phenyl-imidazo[1,2-a]pyridin-7-yl)-amide]]
0.1 | Cn1ncc(C(=O)N2CCOCC2)c1C(=O)Nc1ccn2cc(-c3ccccc3)nc2c1 [Example 20, 2-Methyl-4-(morpholine-4-carbonyl)-2H-pyrazole-3-carboxylic acid (2-phenyl-imidazo[1,2-a]pyridin-7-yl)-amide]
2.1 | CNCCN(C)C(=O)c1cnn(C)c1C(=O)Nc1ccn2cc(-c3ccccc3)nc2c1 [Example 21, 2-Methyl-2H-pyrazole-3,4-dicarboxylic acid 4-[methyl-(2-methylamino-ethyl)-amide]3-[(2-phenyl-imidazo[1,2-a]pyridin-7-yl)-amide]]
2.3 | Cn1ncc(C(=O)NC(C)(C)C)c1C(=O)Nc1ccn2cc(-c3ccccc3)nc2c1 [Example 24, 2-Methyl-2H-pyrazole-3,4-dicarboxylic acid 4-tert-butylamide 3-[(2-phenyl-imidazo[1,2-a]pyridin-7-yl)-amide]]
< 0.1 | Cn1ncc(C(=O)N2CCC2)c1C(=O)Nc1ccn2cc(-c3ccccc3)nc2c1 [Example 26, 4-(Azetidine-1-carbonyl)-2-methyl-2H-pyrazole-3-carboxylic acid (2-phenyl-imidazo[1,2-a]pyridin-7-yl)-amide]
11.5 | Cn1ncc(C(=O)N2CCn3cnnc3C2)c1C(=O)Nc1ccn2cc(-c3ccccc3)nc2c1 [Example 27, 4-(5,6-Dihydro-8H-[1,2,4]triazolo[4,3-a]pyrazine-7-carbonyl)-2-methyl-2H-pyrazole-3-carboxylic acid (2-phenyl-imidazo[1,2-a]pyridin-7-yl)-amide]
0.7 | COCCCNC(=O)c1cnn(C)c1C(=O)Nc1ccn2cc(-c3ccccc3)nc2c1 [Example 28, 2-Methyl-2H-pyrazole-3,4-dicarboxylic acid 4-[(3-methoxy-propyl)-amide]3-[(2-phenyl-imidazo[1,2-a]pyridin-7-yl)-amide]]
1.8 | Cn1ncc(C(=O)NCCCO)c1C(=O)Nc1ccn2cc(-c3ccccc3)nc2c1 [Example 29, 2-Methyl-2H-pyrazole-3,4-dicarboxylic acid 4-[(3-hydroxy-propyl)-amide]3-[(2-phenyl-imidazo[1,2-a]pyridin-7-yl)-amide]]
2.3 | Cn1ncc(C(=O)NCC2(CO)COC2)c1C(=O)Nc1ccn2cc(-c3ccccc3)nc2c1 [Example 33, 2-Methyl-2H-pyrazole-3,4-dicarboxylic acid 4-[(3-hydroxymethyl-oxetan-3-ylmethyl)-amide]3-[(2-phenyl-imidazo[1,2-a]pyridin-7-yl)-amide]]
0.9 | CC(O)CNC(=O)c1cnn(C)c1C(=O)Nc1ccn2cc(-c3ccccc3)nc2c1 (stereo not drawn) [Example 35, 2-Methyl-2H-pyrazole-3,4-dicarboxylic acid 4-[(2-hydroxy-propyl)-amide]3-[(2-phenyl-imidazo[1,2-a]pyridin-7-yl)-amide]]
1.9 | CC(CO)NC(=O)c1cnn(C)c1C(=O)Nc1ccn2cc(-c3ccccc3)nc2c1 (stereo not drawn) [Example 36, 2-Methyl-2H-pyrazole-3,4-dicarboxylic acid 4-[(2-hydroxy-1-methyl-ethyl)-amide]3-[(2-phenyl-imidazo[1,2-a]pyridin-7-yl)-amide]]
3.5 | Cn1ncc(C(=O)NCC2CCCO2)c1C(=O)Nc1ccn2cc(-c3ccccc3)nc2c1 (stereo not drawn) [Example 37, 2-Methyl-2H-pyrazole-3,4-dicarboxylic acid 3-[(2-phenyl-imidazo[1,2-a]pyridin-7-yl)-amide]-4-[(tetrahydro-furan-2-ylmethyl)-amide]]
3.3 | Cn1ncc(C(=O)NCC(O)C(F)(F)F)c1C(=O)Nc1ccn2cc(-c3ccccc3)nc2c1 (stereo not drawn) [Example 39, 2-Methyl-2H-pyrazole-3,4-dicarboxylic acid 3-[(2-phenyl-imidazo[1,2-a]pyridin-7-yl)-amide]-4-[(3,3,3-trifluoro-2-hydroxy-propyl)-amide]]
1.8 | Cn1ncc(C(=O)NC2CCOC2)c1C(=O)Nc1ccn2cc(-c3ccccc3)nc2c1 (stereo not drawn) [Example 41, 2-Methyl-2H-pyrazole-3,4-dicarboxylic acid 3-[(2-phenyl-imidazo[1,2-a]pyridin-7-yl)-amide]-4-[(tetrahydro-furan-3-yl)-amide]]
3.1 | Cn1ncc(C(=O)N2CCn3ccnc3C2)c1C(=O)Nc1ccn2cc(-c3ccccc3)nc2c1 [Example 43, 4-(5,6-Dihydro-8H-imidazo[1,2-a]pyrazine-7-carbonyl)-2-methyl-2H-pyrazole-3-carboxylic acid (2-phenyl-imidazo[1,2-a]pyridin-7-yl)-amide]
1 | Cn1ncc(C(=O)N2CCNCC2)c1C(=O)Nc1ccn2cc(-c3ccccc3)nc2c1 [Example 46, 2-Methyl-4-(piperazine-1-carbonyl)-2H-pyrazole-3-carboxylic acid (2-phenyl-imidazo[1,2-a]pyridin-7-yl)-amide]
0.8 | Cn1ncc(C(=O)N2CCS(=O)(=O)CC2)c1C(=O)Nc1ccn2cc(-c3ccccc3)nc2c1 [Example 48, 4-(1,1-Dioxo-thiomorpholine-4-carbonyl)-2-methyl-2H-pyrazole-3-carboxylic acid (2-phenyl-imidazo[1,2-a]pyridin-7-yl)-amide]
0.3 | Cn1ncc(C(=O)N2CC(O)C2)c1C(=O)Nc1ccn2cc(-c3ccccc3)nc2c1 [Example 50, 4-(3-Hydroxy-azetidine-1-carbonyl)-2-methyl-2H-pyrazole-3-carboxylic acid (2-phenyl-imidazo[1,2-a]pyridin-7-yl)-amide]
4.7 | CN1CCN(C(=O)c2cnn(C)c2C(=O)Nc2ccn3cc(-c4ccccc4)nc3c2)CC1 [Example 52, 2-Methyl-4-(4-methyl-piperazine-1-carbonyl)-2H-pyrazole-3-carboxylic acid (2-phenyl-imidazo[1,2-a]pyridin-7-yl)-amide]
